Results as given in US20250002450A1, “CATIONIC STEROID COMPOUNDS, METHOD OF OBTAINING THEREOF, FORMULATIONS COMPRISING THEREOF AND THEIR USES” (UNIVERSIDADE DO PORTO, priority 2021, published 2025).
Converted amounts (≈) assume the structure as drawn. Read-outs that look alike come from different tables or passages of the source.

Key:
Assay type in all cases: cell-based
[1] = test system: Gram-negative and Gram-positive bacteria; experiment: Antibacterial activity, whole strain panel; conditions: for spectrum of antibacterial activity (in words): all bacterial strains tested
Excerpt: Twelve reference bacterial strains and nine MDR clinically relevant bacterial strains were used in this study. Gram-negative bacteria comprised reference strains E. coli ATCC 25922, K. pneumoniae ATCC 13883, Salmonella enterica serovar Typhimurium CECT 443, P. aeruginosa ATCC 27853, A. baumannii ATCC 19606, C. jejuni ATCC 33560 (ATCC—American Type Culture Collection; CECT—Colección Espanola de Cultivos Tipo); clinical isolates E. coli SA/2, an extended-spectrum β-lactamase (ESBL)-producing strain and P. aeruginosa 33b, a pan-drug-resistant isolate; and animal isolates C. jejuni P5/4, a ciprofloxacin-resistant strain, C. jejuni 4432, C. jejuni 4433, C. jejuni 4448, and E. coli 2252, a COL-resistant strain [42]. Gram-positive strains included S. aureus ATCC 29213, E. faecalis ATCC 29212, S. pyogenes ATCC 19615, and environmental isolates methicillin-resistant S. aureus (MRSA) 66/1 [43], and VAN-resistant enterococci (VRE) E. faecalis B3/101 [44]. Gram-negative fish pathogens Yersinia ruckeri ATCC 29473, Listonella anguillarum ATCC 1924, and Tenacibaculum maritimum ATCC 43397 were also included.
Strains were kept in Trypto-Casein Soy agar (TSA—Biokar Diagnostics, Allone, Beauvais, France) slants and, before each assay, were sub-cultured in Mueller-Hinton agar (MHA—Biokar Diagnostics, Allone, Beauvais, France). Y. ruckeri ATCC 29473 and L. anguillarum ATCC 1924 were kept in Nutrient Agar (Condalab, Madrid, Spain) and T. maritimum ATCC 43397 was kept in TMM agar (Condalab, Madrid, Spain), and were sub-cultured in the respective culture media before each assay. For S. pyogenes ATCC 19615, CAMHB was supplemented with 3.75% lysed horse blood (LBH—Oxoid, Basingstoke, England), whereas for C. jejuni it was supplemented with 2.5% LHB. Colony-forming unit counts of the inoculum were conducted to determine the initial inoculum size (which should be approximately 5×10^5 CFU/mL). Sterility and growth controls were included in each assay. The 96-well U-shaped untreated polystyrene microtiter plates were incubated for 20 h at 37 degrees C. (42 degrees C. for C. jejuni, in a microaerophilic atmosphere) and the minimal inhibitory concentration (MIC) was determined as the lowest concentration of compound that prevented visible growth. The minimal bactericidal concentration (MBC) was determined by spreading 100 μL of the content of the wells with no visible growth on MH plates. The MBC was determined as the lowest concentration of compound that killed 99.9% of the initial inoculum after overnight incubation at 37 degrees C. Two independent assays were performed for reference and MDR strains.
An initial screening of the antibacterial activity of the compounds was performed by the Kirby-Bauer disk diffusion method, as recommended by the Clinical and Laboratory Standards Institute (CLSI). Briefly, sterile 6 mm blank paper disks (Oxoid, Basingstoke, England) impregnated with 15 μg of each compound were placed on inoculated MH agar plates. A blank disk with dimethylsulfoxide (DMSO) was used as a negative control. MH inoculated plates were incubated for 18-20 h at 37 degrees C. At the end of incubation, the inhibition halos where measured. The MIC was used to determine the antibacterial activity of each compound, in accordance with the recommendations of the CLSI. Two-fold serial dilutions of the compounds were prepared in Mueller-Hinton Broth 2 (MHB2—Sigma-Aldrich, St. Louis, MO, USA) within the concentration range of 0.062-64 μg/mL. CTX ranging between 0.031-16 μg/mL was used as a control. Sterility and growth controls were included in each assay. Purity checks and colony counts of the inoculum suspensions were also performed in order to ensure that the final inoculum density closely approximates the intended number (5×10^5 CFU/mL). The MIC was determined as the lowest concentration of compound that inhibited growth of the bacteria. The MBC was assessed by spreading 10 μL of culture collected from wells showing no visible growth on MH agar plates. […]

[2] = test system: Escherichia coli ATCC 25922; experiment: Antibacterial MIC/MBC (broth microdilution); conditions: for MBC / MIC: Escherichia coli ATCC 25922
In short: (§1)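 Each strain is exposed to two-fold compound dilutions (0.062-64 μg/mL) in MHB2 at roughly 5×10^5 CFU/mL for 20 h at 37 degrees C. Clear wells are subcultured overnight on MH agar for the 99.9%-kill MBC.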

[3] = test system: Pseudomonas aeruginosa ATCC 27853; experiment: Antibacterial MIC/MBC (broth microdilution); conditions: for MBC / MIC: Pseudomonas aeruginosa ATCC 27853
In short: as §1

[4] = test system: Campylobacter jejuni ATCC 33560; experiment: Antibacterial MIC/MBC (broth microdilution); conditions: for MBC / MIC: Campylobacter jejuni ATCC 33560; for antibacterial activity (in words): C. jejuni ATCC 33560
[5] = test system: Salmonella enterica serovar Typhimurium CECT 443; experiment: Antibacterial MIC/MBC (broth microdilution)
In short: as §1

[6] = test system: Klebsiella pneumoniae ATCC 13883; experiment: Antibacterial MIC/MBC (broth microdilution); conditions: for MBC / MIC: Klebsiella pneumoniae ATCC 13883
In short: as §1

Row | SMILES | activity against Gram-negative bacteria (in words) [1] | MBC ([2]; ATCC25922, read-out: MBC) [µg/mL] | MIC ([2]; ATCC25922, read-out: MIC) [µg/mL] | MBC ([3]; ATCC27853, read-out: MBC) [µg/mL] | MIC ([3]; ATCC27853, read-out: MIC) [µg/mL] | MBC ([4]; ATCC33560, read-out: MBC) [µg/mL] | MIC ([4]; ATCC33560, read-out: MIC) [µg/mL] | MBC ([5]; read-out: MBC) [µg/mL] | MIC ([5]; read-out: MIC) [µg/mL] | MBC ([6]; ATCC13883, read-out: MBC) [µg/mL] | MIC ([6]; ATCC13883, read-out: MIC) [µg/mL] | spectrum of antibacterial activity (in words) [1] | also measured
1 | CCN(CC)CCNC(=O)CC[C@@H](C)[C@H]1CC[C@H]2[C@@H]3CC[C@@H]4C[C@H](O)CC[C@]4(C)[C@H]3C[C@H](O)[C@]12C [Compound 6, (R)—N-(2-(diethylamino)ethyl)-4-((3R,5R,8R,9S,10S,12S,13R,14S,17R)-3,12-dihydroxy-10,13-dimethylhexadecahydro-1H-cyclopenta[a]phenanthren-17-yl)pentanamide] | exhibited activities | > 64 | 64 (≈ 130 µM) | > 64 | > 64 | > 64 | > 64 | > 64 | > 64 | > 64 | > 64 | – | –
2 | C[C@H](CCC(=O)NCCNc1ccccc1)[C@H]1CC[C@H]2[C@@H]3CC[C@@H]4C[C@H](O)CC[C@]4(C)[C@H]3C[C@H](O)[C@]12C [Compound 8, (R)-4-((3R,5R,8R,9S,10S,12S,13R,14S,17R)-3,12-dihydroxy-10,13-dimethylhexadecahydro-1H-cyclopenta[a]phenanthren-17-yl)-N-(2-(phenylamino)ethyl)pentanamide] | – | > 64 | > 64 | > 64 | > 64 | > 64 | > 64 | > 64 | > 64 | > 64 | > 64 | – | –
3 | C[C@H](CCC(=O)N1CCOCC1)[C@H]1CC[C@H]2[C@@H]3CC[C@@H]4C[C@H](O)CC[C@]4(C)[C@H]3C[C@H](O)[C@]12C [Compound 3, (R)-4-((3R,5R,8R,9S,10S,12S,13R,14S,17R)-3,12-dihydroxy-10,13-dimethylhexadecahydro-1H-cyclopenta[a]phenanthren-17-yl)-1-morpholinopentan-1-one] | – | > 64 | > 64 | > 64 | > 64 | > 64 | > 64 | > 64 | > 64 | > 64 | > 64 | – | –
4 | C[C@H](CCC(=O)NCCN)[C@H]1CC[C@H]2[C@@H]3CC[C@@H]4C[C@H](O)CC[C@]4(C)[C@H]3C[C@H](O)[C@]12C [Compound 1, (R)—N-(2-aminoethyl)-4-((3R,5R,8R,9S,10S,12S,13R,14S,17R)-3,12-dihydroxy-10,13-dimethylhexadecahydro-1H-cyclopenta[a]phenanthren-17-yl) pentanamida] | exhibited activities | – | – | – | – | – | – | – | – | – | – | active in every bacterial strain tested | antibacterial activity (in words) ([2]; E. coli ATCC 25922): active; MBC [2]: 64 µg/mL (≈ 147 µM); MIC [2]: 32 µg/mL (≈ 73.6 µM); antibacterial activity (in words) ([3]; P. aeruginosa ATCC 27853): active; MBC [3]: 64 µg/mL (≈ 147 µM); MIC [3]: 64 µg/mL (≈ 147 µM); antibacterial activity (in words) [4]: showed antimicrobial activity; MBC [4]: 64 µg/mL (≈ 147 µM); MIC [4]: 64 µg/mL (≈ 147 µM); MBC [5]: 16 µg/mL (≈ 36.8 µM); MIC [5]: 16 µg/mL (≈ 36.8 µM); antibacterial activity (in words) [5]: exhibited antimicrobial activity; antibacterial activity (in words) ([6]; K. pneumoniae ATCC 13883): active; MBC [6]: 64 µg/mL (≈ 147 µM); MIC [6]: 64 µg/mL (≈ 147 µM)
5 | C[C@H](CCC(=O)N1CCCCC1)[C@H]1CC[C@H]2[C@@H]3CC[C@@H]4C[C@H](O)CC[C@]4(C)[C@H]3C[C@H](O)[C@]12C [Compound 2, (R)-4-((3R,5R,8R,9S,10S,12S,13R,14S,17R)-3,12-dihydroxy-10,13-dimethylhexadecahydro-1H-cyclopenta[a]phenanthren-17-yl)-1-(piperidin-1-yl) pentan-1-one] | – | > 64 | > 64 | > 64 | > 64 | 64 (≈ 139 µM) | 64 (≈ 139 µM) | > 64 | > 64 | > 64 | > 64 | – | antibacterial activity (in words) [4]: showed antimicrobial activity
6 | C[C@H](CCC(=O)N1CCN(C(=O)OC(C)(C)C)CC1)[C@H]1CC[C@H]2[C@@H]3CC[C@@H]4C[C@H](O)CC[C@]4(C)[C@H]3C[C@H](O)[C@]12C [Compound 5, tert-butyl 4-((R)-4-((3R,5R,8R,9S,10S,12S,13R,14S,17R)-3,12-dihydroxy-10,13-dimethylhexadecahydro-1H-cyclopenta[a]phenanthren-17-yl)pentanoyl)piperazine-1-carboxylate] | – | > 64 | > 64 | > 64 | > 64 | > 64 | > 64 | > 64 | > 64 | > 64 | > 64 | – | –
7 | C[C@H](CCC(=O)N1CCN(C(=O)CC[C@H](C)[C@@H]2CC[C@@H]3[C@H]4CC[C@H]5C[C@@H](O)CC[C@@]5(C)[C@@H]4C[C@@H](O)[C@]32C)CC1)[C@H]1CC[C@H]2[C@@H]3CC[C@@H]4C[C@H](O)CC[C@]4(C)[C@H]3C[C@H](O)[C@]12C [Compound 4, (R)-4-((3R,5R,8R,9S,10S,12S,13R,14S,17R)-3,12-dihydroxy-10,13-dimethylhexadecahydro-1H-cyclopenta[a]phenanthren-17-yl)-1-(4-((S)-4-((3S,5S,8S,9R,10R,12R,13S,14R,17S)-3,12-dihydroxy-10,13-dimethylhexadecahydro-1H-cyclopenta[a]phenanthren-17-yl)pentanoyl)piperazin-1-yl) pentan-1-one] | exhibited activities | > 64 | > 64 | > 64 | > 64 | > 64 | > 64 | 64 (≈ 76.6 µM) | 64 (≈ 76.6 µM) | > 64 | > 64 | active in eight of the tested strains | antibacterial activity (in words) [5]: exhibited antimicrobial activity
8 | C[C@H](CCC(=O)N1CCNCC1)[C@H]1CC[C@H]2[C@@H]3CC[C@@H]4C[C@H](O)CC[C@]4(C)[C@H]3C[C@H](O)[C@]12C [Compound 9, (R)-4-((3R,5R,8R,9S,10S,12S,13R,14S,17R)-3,12-dihydroxy-10,13-dimethylhexadecahydro-1H-cyclopenta[a]phenanthren-17-yl)-1-(piperazin-1-yl) pentan-1-one] | exhibited activities | > 64 | > 64 | > 64 | > 64 | > 64 | > 64 | 64 (≈ 139 µM) | 64 (≈ 139 µM) | > 64 | > 64 | broad spectrum of activity | –
